In patent publication US11851391B2, “Antifungal compounds and methods of forming the same” (University of Kentucky Research Foundation, priority 2018, dated 2023):
Values after ≈ are worked out from the molar mass of the structure shown. Like-named read-outs stand apart in the source and are kept apart here.

What was measured:
[1] = system: Aspergillus flavus ATCC MYA-3631 (strain K); assay: MIC determination against filamentous fungi (CLSI M38-A2); type: cell-based; details: MIC-0, 48 h at 35° C.
In short: (§1)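 Broth microdilution followed CLSI M38-A2 in RPMI 1640 buffered to pH 7.0 with 0.165 M MOPS. Spores were harvested from PDA cultures, counted by hemocytometer and added at 5×10^5 CFU/mL final, then incubated 48 h at 35° C. MIC was taken as complete growth inhibition versus growth control (MIC-0), run in triplicate.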

[2] = system: Aspergillus terreus ATCC MYA-3633 (strain M); assay: as above; type: cell-based; details: MIC-0, 48 h at 35° C.
In short: as §1

[3] = system: Aspergillus nidulans ATCC 38163 (strain L); assay: as above; type: cell-based; details: MIC-0, 48 h at 35° C.
In short: as §1

[4] = system: C. albicans ATCC MYA-1003(R) (strain G); assay: MIC determination, in vitro antifungal assay (CLSI M27-A3); type: cell-based, Candida albicans; details: MIC-0, 48 h at 35° C.
In short: (§2)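 A single colony was grown overnight in YPD broth at 35° C with shaking, set to OD600 0.12 in water, and diluted to 2-4×10^3 CFU/mL in MOPS-buffered RPMI 1640 (pH 7.0). MICs were then determined by the CLSI M27-A3 method at 35° C, keeping DMSO under 1.25%.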

[5] = system: C. albicans ATCC MYA-2876(S) (strain C); assay: as above; type: cell-based, Candida albicans; details: MIC-0, 48 h at 35° C.
In short: as §2

[6] = system: murine red blood cells (mRBCs); details: for Percentage of hemolysis (±SDEV): mouse, 60 min
Protocol: Thus, the hemolytic activity for these bishydrazones was investigated against murine red blood cells (mRBCs).
Murine red blood cells (mRBCs) were prepared by suspending 1 mL of murine blood in 3 mL of PBS prior to centrifugation at 1,000 rpm for 5 min. The mRBCs were washed four times in PBS and resuspended in the same buffer to a final concentration of 10^7 mRBC/mL. […] The tubes were incubated at 37° C. for 60 min. […] Eppendorf tubes containing 200 μL of ddH2O and 2 μL of 1% v/v Triton™ X-100 served as negative (blank) and positive controls, respectively. The percentage of hemolysis was calculated using the following equation: % hemolysis=[(absorbance of sample)−(absorbance of blank)]×100/(absorbance of positive control).

[7] = system: Candida krusei ATCC 6258 (strain I); assay: MIC determination, in vitro antifungal assay (CLSI M27-A3); type: cell-based; details: MIC-0, 48 h at 35° C.
In short: as §2

[8] = system: Candida glabrata ATCC 2001 (strain H); assay: as above; type: cell-based; details: MIC-0, 48 h at 35° C.
In short: as §2

[9] = Aspergillus flavus, 48 h, read-out: MIC
[10] = Aspergillus terreus, 48 h, read-out: MIC
[11] = Aspergillus nidulans, ATCC38163, 48 h, read-out: MIC
[12] = Candida albicans, 48 h, read-out: MIC
[13] = Pichia kudriavzevii, ATCC6258, 48 h, read-out: MIC
[14] = Nakaseomyces glabratus, ATCC2001, 48 h, read-out: MIC

Row | SMILES | MIC [1, 9] | MIC [1] | MIC [2, 10] | MIC [3, 11] | MIC [3] | MIC [4, 12] | MIC [4] | MIC [5, 12] | hemolytic activity (in words) [6] | Percentage of hemolysis (±SDEV) ([6]; 0.975 μg/mL) | Percentage of hemolysis (±SDEV) ([6]; 1.95 μg/mL) | Percentage of hemolysis (±SDEV) ([6]; 3.9 μg/mL) | Percentage of hemolysis (±SDEV) ([6]; 7.8 μg/mL) | Percentage of hemolysis (±SDEV) ([6]; 15.6 μg/mL) | Percentage of hemolysis (±SDEV) ([6]; 31.3 μg/mL) | MIC [7] | MIC [7, 13] | MIC [8, 14] | MIC [5] | other results
1 | C(=N\Nc1ccccc1)/c1ccc(-c2cccc(/C=N/Nc3ccccc3)c2)cc1 [Compound 7a] | 1.95 to 3.9 µg/mL (≈ 4.99 to 9.99 µM) | 3.9 µg/mL (≈ 9.99 µM) | 7.8 to 15.6 µg/mL (≈ 20 to 39.9 µM) | 1.95 to 3.9 µg/mL (≈ 4.99 to 9.99 µM) | 1.95 µg/mL (≈ 4.99 µM) | 1.95 to 3.9 µg/mL (≈ 4.99 to 9.99 µM) | 3.9 µg/mL (≈ 9.99 µM) | 31.3 µg/mL (≈ 80.2 µM) | lack of hemolytic activity | 0% | 3.5 ± 3.3% | 1.5 ± 0.9% | 8.5 ± 5.1% | 14.1 ± 0.1% | 16.7 ± 0.9% | 7.8 µg/mL (≈ 20 µM) | 7.8 to 15.6 µg/mL (≈ 20 to 39.9 µM) | > 31.3 µg/mL | – | MIC [2]: 15.6 µg/mL (≈ 39.9 µM)
2 | Fc1cccc(N/N=C/c2ccc(-c3cccc(/C=N/Nc4cccc(F)c4)c3)cc2)c1 [Compound 12a] | 1.95 to 3.9 µg/mL (≈ 4.57 to 9.14 µM) | 3.9 µg/mL (≈ 9.14 µM) | > 31.3 µg/mL | 7.8 to 15.6 µg/mL (≈ 18.3 to 36.6 µM) | 7.8 µg/mL (≈ 18.3 µM) | 7.8 to 15.6 µg/mL (≈ 18.3 to 36.6 µM) | 7.8 µg/mL (≈ 18.3 µM) | 7.8 to 15.6 µg/mL (≈ 18.3 to 36.6 µM) | lack of hemolytic activity | 4.6 ± 2.5% | 0.6 ± 0.6% | 2.5 ± 2.7% | 7.9 ± 0.1% | – | 32.6 ± 9.6% | 1.95 µg/mL (≈ 4.57 µM) | 1.95 to 3.9 µg/mL (≈ 4.57 to 9.14 µM) | > 31.3 µg/mL | 7.8 µg/mL (≈ 18.3 µM) | Percentage of hemolysis (±SDEV) ([6]; 62.5 μg/mL): 39.5 ± 12.1%
3 | COc1ccc(N/N=C/c2ccc(-c3cccc(/C=N/Nc4ccc(OC)cc4)c3)cc2)cc1 [Compound 15a] | > 31.3 µg/mL | – | > 31.3 µg/mL | 31.3 µg/mL (≈ 69.5 µM) | – | – | – | 1.95 to 3.9 µg/mL (≈ 4.33 to 8.66 µM) | lack of hemolytic activity | 2.6 ± 3.4% | 4.5 ± 1.7% | 3.0 ± 1.6% | 2.6 ± 2.8% | 7.8 ± 3.3% | 9.6 ± 1.7% | 3.9 µg/mL (≈ 8.66 µM) | 1.95 to 3.9 µg/mL (≈ 4.33 to 8.66 µM) | – | 3.9 µg/mL (≈ 8.66 µM) | –
4 | COc1ccc(N/N=C/c2ccc(-c3ccc(/C=N/Nc4ccc(OC)cc4)cc3)cc2)cc1 [Compound 15b] | > 31.3 µg/mL | – | > 31.3 µg/mL | 7.8 to 15.6 µg/mL (≈ 17.3 to 34.6 µM) | 7.8 µg/mL (≈ 17.3 µM) | 7.8 to 15.6 µg/mL (≈ 17.3 to 34.6 µM) | 7.8 µg/mL (≈ 17.3 µM) | 7.8 to 15.6 µg/mL (≈ 17.3 to 34.6 µM) | lack of hemolytic activity | 1.6 ± 2.3% | 1.9 ± 0.3% | 2.8 ± 0.6% | 4.2 ± 3.1% | 6.7 ± 2.0% | 12.6 ± 4.7% | 7.8 µg/mL (≈ 17.3 µM) | 7.8 to 15.6 µg/mL (≈ 17.3 to 34.6 µM) | 7.8 to 15.6 µg/mL (≈ 17.3 to 34.6 µM) | 7.8 µg/mL (≈ 17.3 µM) | MIC [8]: 7.8 µg/mL (≈ 17.3 µM)
